Source: the NIST ThermoML archive (doi:10.1021/je400415r)

Assay: mn = molality of the nth substance listed, in mol/kg
Settings: 101 kPa, Liquid; for speed of sound: Pulse-echo method; for mass density: Vibrating tube method

NCC(=O)O [2-aminoacetic acid] + O
Settings	mass density, 288.15 K [kg/m3]	mass density, 298.15 K [kg/m3]	mass density, 308.15 K [kg/m3]	mass density, 318.15 K [kg/m3]	speed of sound, 288.15 K [m/s]	speed of sound, 298.15 K [m/s]	speed of sound, 308.15 K [m/s]	speed of sound, 318.15 K [m/s]
m1 = 0.04998	1000.77	998.679	995.632	991.792	1469.2	1499.4	1522.2	1538.6
m1 = 0.1399	1003.74	1001.58	998.484	994.608	1474.3	1504.2	1526.8	1543
m1 = 0.2276	1006.6	1004.38	1001.24	997.323	1479.2	1508.8	1531.1	1547.1
m1 = 0.4056	1012.27	1009.94	1006.71	1002.72	1488.9	1517.9	1539.7	1555.4
m1 = 0.5835	1017.82	1015.36	1012.04	1007.99	1498.4	1526.8	1548.2	1563.5
m1 = 0.7602	1023.19	1020.62	1017.22	1013.1	1507.6	1535.4	1556.3	1571.3
m1 = 0.9386	1028.48	1025.81	1022.32	1018.13	1516.7	1543.9	1564.4	1579
m1 = 1.117	1033.62	1030.85	1027.28	1023.04	1525.5	1552.2	1572.2	1586.4
m1 = 1.296	1038.69	1035.81	1032.17	1027.84	1534.1	1560.3	1579.8	1593.7

CCC(N)C(=O)O (stereo not drawn) [(.+-.)-α-aminobutyric acid] + O
Settings	mass density, 288.15 K [kg/m3]	mass density, 298.15 K [kg/m3]	mass density, 308.15 K [kg/m3]	mass density, 318.15 K [kg/m3]	speed of sound, 288.15 K [m/s]	speed of sound, 298.15 K [m/s]	speed of sound, 308.15 K [m/s]	speed of sound, 318.15 K [m/s]
m1 = 0.04996	1000.54	998.441	995.405	991.565	1470.8	1500.8	1523.5	1539.8
m1 = 0.1498	1003.36	1001.19	998.105	994.226	1479.5	1508.9	1530.9	1546.7
m1 = 0.2141	1005.15	1002.92	999.815	995.911	1485.2	1513.8	1535.7	1551.1
m1 = 0.4366	1011.15	1008.79	1005.56	1001.57	1504.2	1531.5	1551.8	1566
m1 = 0.6599	1016.91	1014.4	1011.06	1006.99	1522.7	1548.4	1567.4	1580.5
m1 = 0.8834	1022.42	1019.77	1016.34	1012.18	1540.7	1564.9	1582.6	1594.5
m1 = 1.106	1027.68	1024.9	1021.35	1017.13	1558	1580.7	1597.2	1608
m1 = 1.33	1032.73	1029.83	1026.17	1021.87	1574.8	1596.1	1611.3	1621
m1 = 1.552	1037.55	1034.52	1030.77	1026.4	1590.9	1610.8	1624.8	1633.5
m1 = 1.774	1042.19	1039.05	1035.2	1030.74	1606.6	1625.1	1637.8	1645.5
m1 = 1.998	1046.67	1043.4	1039.51	1034.95	1621.7	1638.9	1650.5	1657.1

CCCC(N)C(=O)O (stereo not drawn) [DL-2-aminopentanoic acid] + O
Settings	mass density, 288.15 K [kg/m3]	mass density, 298.15 K [kg/m3]	mass density, 308.15 K [kg/m3]	mass density, 318.15 K [kg/m3]	speed of sound, 288.15 K [m/s]	speed of sound, 298.15 K [m/s]	speed of sound, 308.15 K [m/s]	speed of sound, 318.15 K [m/s]
m1 = 0.04497	1000.31	998.222	995.183	991.346	1471.3	1501.2	1523.8	1540
m1 = 0.05999	1000.71	998.611	995.564	991.721	1473	1502.7	1525.1	1541.2
m1 = 0.07998	1001.24	999.126	996.069	992.218	1475.1	1504.6	1526.9	1542.8
m1 = 0.09499	1001.63	999.511	996.447	992.59	1476.7	1506.1	1528.2	1544
m1 = 0.11	1002.03	999.895	996.823	992.961	1478.3	1507.5	1529.6	1545.2
m1 = 0.125	1002.42	1000.28	997.197	993.329	1479.9	1509	1530.9	1546.4
m1 = 0.14	1002.81	1000.66	997.57	993.697	1481.5	1510.4	1532.2	1547.6
m1 = 0.155	1003.2	1001.04	997.943	994.064	1483.1	1511.9	1533.5	1548.8
m1 = 0.17	1003.59	1001.42	998.314	994.429	1484.6	1513.3	1534.8	1550
m1 = 0.185	1003.98	1001.79	998.684	994.793	1486.2	1514.7	1536.2	1551.2
m1 = 0.2	1004.36	1002.17	999.053	995.156	1487.8	1516.1	1537.5	1552.4

CC(N)C(=O)O (stereo not drawn) [DL-2-aminopropanoic acid] + O
Settings	mass density, 288.15 K [kg/m3]	mass density, 298.15 K [kg/m3]	mass density, 308.15 K [kg/m3]	mass density, 318.15 K [kg/m3]	speed of sound, 288.15 K [m/s]	speed of sound, 298.15 K [m/s]	speed of sound, 308.15 K [m/s]	speed of sound, 318.15 K [m/s]
m1 = 0.04994	1000.59	998.501	995.455	991.617	1469.9	1500	1522.8	1539.1
m1 = 0.1499	1003.53	1001.37	998.271	994.396	1476.9	1506.5	1528.8	1544.8
m1 = 0.2597	1006.7	1004.46	1001.3	997.395	1484.5	1513.5	1535.4	1551
m1 = 0.4797	1012.86	1010.48	1007.21	1003.23	1499.3	1527.4	1548.3	1563.2
m1 = 0.6994	1018.78	1016.26	1012.89	1008.84	1513.8	1540.8	1560.9	1575
m1 = 0.9199	1024.51	1021.85	1018.39	1014.26	1528	1553.9	1573.2	1586.5
m1 = 1.138	1029.97	1027.2	1023.64	1019.43	1541.7	1566.6	1585	1597.7
m1 = 1.36	1035.33	1032.43	1028.77	1024.51	1555.1	1579.1	1596.7	1608.7
m1 = 1.577	1040.37	1037.36	1033.63	1029.29	1568	1591	1607.8	1619.2
m1 = 1.799	1045.37	1042.26	1038.42	1034.03	1580.7	1602.7	1618.9	1629.5
